Consider 15 molecules from US11414431B2, “Substituted pyrazolo[1,5-a]pyrimidines as TYK2 inhibitors” (Nimbus Lakshmi, Inc., priority 2018, dated 2022).

For orientation: IC50 means the point on the concentration scale where inhibition reaches its midpoint. A high value points to weaker potency. In general, Kd refers to the concentration at which binding is half-saturated.

The first test relates to IL-12 induced STAT4 phosphorlyation mediated by TYK2/JAK2. The test can be described thus: IL-12 Induced pSTAT4 in Human PBMC. The test is classed as cell-based. To be noted: 1.7 ng/mL IL-12 for 30 minutes. In a few lines:
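Thawed human PBMC pre-incubated with compound 1 hr at 37° C (0.1% DMSO final), then stimulated 30 minutes with IL-12 at 1.7 ng/mL final. pSTAT4 and total STAT4 measured in cell lysates with MSD reagents.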
`CNc1cc(-c2cnc3n(CC(=O)N4CC5(COC5)C4)cccc2-3)nc2c(C(=O)N[C@H]3CC[C@@H]3OC)cnn12` [Compound I-1012] gave an IC50 of over 1 µM.

The molecule `CNc1cc(Nc2cccn(-c3ccccn3)c2=O)nc2c(C(N)=O)cnn12` [Compound I-119] showed an IC50 of 0.1 to 0.5 µM.

In the next test the target is human TYK2 (JH2domain-pseudokinase) (Homo sapiens (Human), UniProt P29597). Put plainly: TYK2 JH2 Domain Binding Assay (KINOMEscan). To be noted: 11-point 3-fold dilution, top concentration 30,000 nM, duplicate; read-out: hTYK2_JH2_Binding (Kd; nM). Summed up: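 KINOMEscan competition binding: HEK293-expressed NFkB-fused TYK2 JH2 (G556–D888), DNA-tagged, against immobilized ligand beads, 1 h shaking at room temperature, 0.9% DMSO. Bound kinase quantified by qPCR.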
Chain of human TYK2 (JH2domain-pseudokinase) (P29597 556-888): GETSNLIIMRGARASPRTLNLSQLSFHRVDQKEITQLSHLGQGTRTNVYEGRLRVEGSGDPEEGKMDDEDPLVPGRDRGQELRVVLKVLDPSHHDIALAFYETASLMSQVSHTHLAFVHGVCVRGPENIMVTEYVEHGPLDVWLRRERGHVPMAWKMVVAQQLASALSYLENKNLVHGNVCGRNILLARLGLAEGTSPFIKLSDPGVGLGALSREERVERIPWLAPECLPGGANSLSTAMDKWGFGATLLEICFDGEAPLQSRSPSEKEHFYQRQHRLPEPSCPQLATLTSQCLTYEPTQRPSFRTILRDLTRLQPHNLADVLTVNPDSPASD
As for `CNc1cc(-c2cnc3n(CC(=O)N4CC5(COC5)C4)cccc2-3)nc2c(C(=O)N[C@H]3CC[C@@H]3OC)cnn12` [Compound I-1012], the dissociation constant Kd was under 0.2 nM.

Take `CNc1cc(Nc2cccn(-c3ccccn3)c2=O)nc2c(C(N)=O)cnn12` [Compound I-119]: the Kd was under 0.2 nM.

As for `CNc1cc(Nc2cccn(C3CC(F)(F)C3)c2=O)nc2c(C(=O)N[C@@H]3CCC[C@@](C)(O)C3)cnn12` [Compound I-92, 5-((1-(3,3-Difluorocyclobutyl)-2-oxo-1,2-dihydropyridin-3-yl)amino)-N-((1R,3R)-3-hydroxy-3-methylcyclohexyl)-7-(methylamino)pyrazolo[1,5-a]pyrimidine-3-carboxamide], the Kd is over 10 nM.

For `CNc1cc(-c2cn(C3COC3)c3ncccc23)nc2c(C(=O)N[C@@H]3CC[C@H]3F)cnn12` [Compound I-509], the Kd was under 0.2 nM.

`CNc1cc(-c2cnc3n([C@H]4COC[C@@H]4OC)cccc2-3)nc2c(C(=O)N[C@@H]3C[C@@H]3F)cnn12` [Compound I-823]: the Kd is under 0.2 nM.

For `CC(C)n1cc(-c2nc3c(C(=O)N[C@@H]4CC[C@@H]4O)cnn3c3c2OCCN3)c2cccnc21` [Compound I-755], the Kd is under 0.2 nM.

As for `CNc1cc(Nc2cccn([C@@H]3C[C@H]3F)c2=O)nc2c(C(=O)N[C@@H]3CC[C@H](O)C3)cnn12` [Compound I-42, 5-((1-((1R,2R)-2-Fluorocyclopropyl)-2-oxo-1,2-dihydropyridin-3-yl)amino)-N-((1R,3S)-3-hydroxycyclopentyl)-7-(methylamino)pyrazolo[1,5-a]pyrimidine-3-carboxamide], the Kd is 0.2 to 1 nM.

For `O=C(NC1CC1)c1cnn2c3c(c(Nc4cccn(C5CCOCC5)c4=O)nc12)OCCN3` [Compound I-748], the Kd was under 0.2 nM.

Consider `CNc1cc(-c2cn([C@H]3CCCOC3)c3ncccc23)nc2c(C(=O)N[C@H]3CC[C@H]3O)cnn12` [Compound I-15, N-((1S,2R)-2-Hydroxycyclobutyl)-7-(methylamino)-5-(1-((S)-tetrahydro-2H-pyran-3-yl)-1H-pyrrolo[2,3-b]pyridin-3-yl)pyrazolo[1,5-a]pyrimidine-3-carboxamide], for which the Kd fell in the range of 0.2 to 1 nM.

With `CNc1cc(-c2cn([C@@H]3COC[C@H]3OC)c3ncccc23)nc2c(C(=O)N[C@@H]3C[C@@H]3F)cnn12` [Compound I-503], the Kd was under 0.2 nM.

Consider `CNc1cc(-c2cn(CCN3CCOCC3)c3ncccc23)nc2c(C(=O)N[C@H]3CC[C@@H]3OC)cnn12` [Compound I-54, N-((1S,2S)-2-Methoxycyclobutyl)-7-(methylamino)-5-(1-(2-morpholinoethyl)-1H-pyrrolo[2,3-b]pyridin-3-yl)pyrazolo[1,5-a]pyrimidine-3-carboxamide], for which the Kd was under 0.2 nM.

Consider `CNc1cc(-c2cnc3n(CC(=O)N4CC5(COC5)C4)cccc2-3)nc2c(C(=O)NC3CC[C@@H]3OC)cnn12` (mixture of isomers) [Compound I-970], for which the equilibrium dissociation constant (Kd) was under 0.2 nM.

On to `CNc1cc(-c2cnc3n(C4CCN(CCOC)CC4)cccc2-3)nc2c(C(=O)N[C@@H]3CC[C@H]3OC)cnn12` [Compound I-1021, N-((1R,2R)-2-methoxycyclobutyl)-5-(7-(1-(2-methoxyethyl)piperidin-4-yl)-7H-pyrrolo[2,3-b]pyridin-3-yl)-7-(methylamino)pyrazolo[1,5-a]pyrimidine-3-carboxamide], for which the Kd was 0.2 to 1 nM.

Regarding `CNc1cc(Nc2cccn(C(C)C)c2=O)nc2c(C(=O)N[C@H]3CC[C@]3(C)O)cnn12` [Compound I-340], the Kd was under 0.2 nM.

Take `O=C(NC1CC1)c1cnn2c3c(c(Nc4cccc5ocnc45)nc12)OCCN3` [Compound I-749]: the Kd was under 0.2 nM.
